In patent US11414413B2, “Heterocyclic compound as JAK inhibitor, and salts and therapeutic use thereof” (Suzhou Longbiotech Pharmaceuticals Co., Ltd., priority 2016, dated 2022):

Assays:
Assay type in all cases: biochemical
[1] = biological target: JAK1 (Homo sapiens (Human), UniProt P23458); assay: Inhibition of JAK1, luminescence kinase assay (ADP-Glo); conditions: purified recombinant JAK1
Protocol: (§1) The study of the effect of compounds on the activity of purified recombinant JAK was performed by studying the inhibitory activity of the compounds on JAK from the enzymatic level. The experimental principle is to use a luminescence kinase assay to detect the ADP content produced by the reaction of JAK with the substrate Poly (4:1 Glu, Tyr) peptide: after ADP is converted to ATP, ATP can act as a substrate for the Ultra-Glo luciferase catalytic reaction, producing an optical signal. The luminescence signal is positively correlated with the amount of ADP and kinase activity. Therefore, the inhibitory effect of the compounds on the recombinant JAK was determined by observing the luminescence signal produced by the reaction of JAK and the substrate, and was expressed by IC50.
(§2) Experimental method: 10 different concentrations of compounds were incubated with JAK1, JAK2 and JAK3, respectively, for 60 minutes at 37° C. The substrate and ATP were then added, mixed, and reacted at 37° C. for 50 minutes. 25 μl of ADP-Glo™ was added and mixed for 2 minutes. The reaction was carried out for 50 minutes at room temperature. Further, 50 μl of the detection reagent was added and mixed for 2 minutes, and incubated at room temperature for 50 minutes, and detected by a chemiluminometer.

[2] = biological target: JAK2 (Homo sapiens (Human), UniProt O60674); assay: Inhibition of JAK2, luminescence kinase assay (ADP-Glo); conditions: purified recombinant JAK2
Sequence of JAK2 (O60674 whole entry): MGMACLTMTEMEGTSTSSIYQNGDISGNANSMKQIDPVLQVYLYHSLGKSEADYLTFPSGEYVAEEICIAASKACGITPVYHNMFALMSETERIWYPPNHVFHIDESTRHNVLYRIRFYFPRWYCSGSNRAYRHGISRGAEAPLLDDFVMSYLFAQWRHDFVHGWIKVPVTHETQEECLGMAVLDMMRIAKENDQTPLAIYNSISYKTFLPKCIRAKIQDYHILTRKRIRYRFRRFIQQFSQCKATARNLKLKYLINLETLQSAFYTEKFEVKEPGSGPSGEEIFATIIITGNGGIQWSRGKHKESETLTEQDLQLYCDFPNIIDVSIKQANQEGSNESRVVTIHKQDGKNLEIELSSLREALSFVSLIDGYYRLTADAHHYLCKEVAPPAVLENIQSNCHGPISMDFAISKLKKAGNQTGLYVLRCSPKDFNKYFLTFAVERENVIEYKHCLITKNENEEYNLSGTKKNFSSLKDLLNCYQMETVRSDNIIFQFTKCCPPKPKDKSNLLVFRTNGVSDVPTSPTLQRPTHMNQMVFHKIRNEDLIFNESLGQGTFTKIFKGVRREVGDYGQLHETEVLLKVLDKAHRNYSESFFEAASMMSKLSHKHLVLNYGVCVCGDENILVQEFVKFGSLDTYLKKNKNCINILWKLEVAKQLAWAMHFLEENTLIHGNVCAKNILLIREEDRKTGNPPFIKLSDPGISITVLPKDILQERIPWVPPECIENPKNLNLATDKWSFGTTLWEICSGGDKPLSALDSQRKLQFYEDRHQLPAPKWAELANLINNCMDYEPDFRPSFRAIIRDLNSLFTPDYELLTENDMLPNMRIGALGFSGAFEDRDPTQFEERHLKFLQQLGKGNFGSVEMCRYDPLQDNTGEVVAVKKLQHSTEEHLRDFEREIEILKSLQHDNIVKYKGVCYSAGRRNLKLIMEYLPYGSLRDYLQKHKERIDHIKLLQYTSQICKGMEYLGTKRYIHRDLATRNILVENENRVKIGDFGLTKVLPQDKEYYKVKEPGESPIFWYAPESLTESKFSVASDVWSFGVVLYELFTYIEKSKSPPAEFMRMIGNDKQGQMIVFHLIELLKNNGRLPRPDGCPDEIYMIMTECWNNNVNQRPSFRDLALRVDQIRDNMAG
Protocol: as §1, §2

[3] = biological target: JAK3 (Homo sapiens (Human), UniProt P52333); assay: Inhibition of JAK3, luminescence kinase assay (ADP-Glo); conditions: purified recombinant JAK3
Sequence of JAK3 (P52333 whole entry): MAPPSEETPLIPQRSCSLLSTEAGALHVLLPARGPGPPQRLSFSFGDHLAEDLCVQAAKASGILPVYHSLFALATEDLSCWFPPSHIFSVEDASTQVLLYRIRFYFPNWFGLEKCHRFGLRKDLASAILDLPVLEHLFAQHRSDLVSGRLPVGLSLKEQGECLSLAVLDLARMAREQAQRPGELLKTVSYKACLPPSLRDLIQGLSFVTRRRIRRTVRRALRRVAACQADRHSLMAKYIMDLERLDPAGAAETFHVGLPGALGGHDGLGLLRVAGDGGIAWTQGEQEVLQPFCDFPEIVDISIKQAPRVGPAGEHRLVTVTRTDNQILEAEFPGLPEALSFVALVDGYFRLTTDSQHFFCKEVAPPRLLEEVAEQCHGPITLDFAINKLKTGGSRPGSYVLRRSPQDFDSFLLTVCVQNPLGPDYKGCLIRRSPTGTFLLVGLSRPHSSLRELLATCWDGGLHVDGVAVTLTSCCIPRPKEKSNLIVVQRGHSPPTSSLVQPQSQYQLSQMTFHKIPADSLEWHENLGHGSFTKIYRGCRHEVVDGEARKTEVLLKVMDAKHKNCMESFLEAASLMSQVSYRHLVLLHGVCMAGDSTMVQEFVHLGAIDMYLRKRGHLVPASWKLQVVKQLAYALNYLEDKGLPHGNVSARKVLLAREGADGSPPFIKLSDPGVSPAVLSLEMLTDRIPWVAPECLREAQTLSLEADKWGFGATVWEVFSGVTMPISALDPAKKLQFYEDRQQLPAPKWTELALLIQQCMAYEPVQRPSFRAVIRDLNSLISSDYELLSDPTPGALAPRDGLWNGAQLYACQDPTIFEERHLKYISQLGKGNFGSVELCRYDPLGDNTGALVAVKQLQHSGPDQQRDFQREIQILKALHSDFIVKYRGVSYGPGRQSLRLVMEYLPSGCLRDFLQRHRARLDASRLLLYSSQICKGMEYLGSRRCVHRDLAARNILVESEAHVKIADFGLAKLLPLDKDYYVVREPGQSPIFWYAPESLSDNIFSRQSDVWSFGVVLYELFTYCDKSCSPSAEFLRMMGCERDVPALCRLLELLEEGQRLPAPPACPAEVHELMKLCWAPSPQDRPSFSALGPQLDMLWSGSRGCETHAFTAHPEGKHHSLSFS
Protocol: as §1, §2

Sequence of JAK1 (P23458 whole entry): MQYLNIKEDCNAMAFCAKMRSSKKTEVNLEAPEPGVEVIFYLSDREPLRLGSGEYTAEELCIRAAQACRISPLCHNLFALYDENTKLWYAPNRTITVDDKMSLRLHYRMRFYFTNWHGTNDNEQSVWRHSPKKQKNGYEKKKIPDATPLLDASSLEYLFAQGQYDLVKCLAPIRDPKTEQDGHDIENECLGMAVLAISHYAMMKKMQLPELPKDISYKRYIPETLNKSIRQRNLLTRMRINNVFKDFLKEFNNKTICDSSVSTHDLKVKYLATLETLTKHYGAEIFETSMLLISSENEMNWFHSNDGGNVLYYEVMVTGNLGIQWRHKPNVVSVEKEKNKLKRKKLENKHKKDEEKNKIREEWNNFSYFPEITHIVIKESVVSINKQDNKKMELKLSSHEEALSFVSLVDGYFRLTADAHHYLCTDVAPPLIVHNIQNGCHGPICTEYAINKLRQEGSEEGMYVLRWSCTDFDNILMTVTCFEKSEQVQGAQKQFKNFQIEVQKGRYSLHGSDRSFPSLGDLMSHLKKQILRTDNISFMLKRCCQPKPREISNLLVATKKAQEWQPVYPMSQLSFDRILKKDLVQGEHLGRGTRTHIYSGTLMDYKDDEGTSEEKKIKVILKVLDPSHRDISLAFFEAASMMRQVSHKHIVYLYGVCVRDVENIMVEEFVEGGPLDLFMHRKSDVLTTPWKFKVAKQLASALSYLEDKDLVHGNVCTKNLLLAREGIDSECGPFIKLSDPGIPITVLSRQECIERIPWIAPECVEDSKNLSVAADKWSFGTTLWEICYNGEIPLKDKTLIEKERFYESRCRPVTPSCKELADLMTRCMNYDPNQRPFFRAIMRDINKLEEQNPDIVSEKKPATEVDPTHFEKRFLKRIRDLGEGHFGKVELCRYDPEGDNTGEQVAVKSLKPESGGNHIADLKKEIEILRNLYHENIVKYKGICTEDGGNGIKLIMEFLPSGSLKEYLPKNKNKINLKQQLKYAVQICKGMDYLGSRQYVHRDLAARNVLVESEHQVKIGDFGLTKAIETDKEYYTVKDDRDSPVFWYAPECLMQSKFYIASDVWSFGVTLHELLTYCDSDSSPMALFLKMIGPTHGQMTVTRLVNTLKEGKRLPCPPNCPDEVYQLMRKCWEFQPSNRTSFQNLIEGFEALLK

Row | Compound | IC50 [1] [nM] | IC50 [2] [nM] | IC50 [3] [nM]
1 | CCS(=O)(=O)N1CC(C#N)(Nc2ccnc(-c3c[nH]c4ncccc34)n2)C1 [Example 45, 3-((2-(1H-pyrrolo[2,3-b]pyridin-3-yl)pyrimidin-4-yl)amino)-1-(ethylsulfonyl) azetidine-3-carbonitrile] | > 50 | 20 to 50 | 20 to 50
2 | CC[C@](C)(C#N)Nc1ccnc(-c2c[nH]c3ncccc23)n1 [Example 60] | > 50 | > 50 | 20 to 50
3 | N#CC1(Nc2ccnc(-c3ncnc4[nH]ccc34)n2)CCCC1 [Example 58, 1-((2-(7H-pyrrolo[2,3-d]pyrimidin-4-yl)pyrimidin-4-yl)amino)cyclopentanecarbonitrile] | > 50 | > 50 | > 50
4 | CS(=O)(=O)N1CC(C#N)(Nc2ccnc(-c3c[nH]c4ncccc34)n2)C1 [Example 48, 3-((2-(1H-pyrrolo[2,3-b]pyridin-3-yl)pyrimidin-4-yl)amino)-1-(methylsulfonyl) azetidine-3-carbonitrile] | > 50 | > 50 | > 50
5 | CC[C@](C)(C#N)Nc1ccnc(-c2ncnc3[nH]ccc23)n1 [Example 61] | > 50 | > 50 | > 50
6 | O=C(NCC(F)(F)F)C1(Nc2nc(-c3c[nH]c4ncccc34)ncc2F)CN(S(=O)(=O)C2CC2)C1 [Example 36] | > 50 | > 50 | 20 to 50
7 | O=C(CC1(n2cc(-c3c[nH]c4ncccc34)cn2)CCS(=O)(=O)CC1)NCC(F)(F)F [Example 19, 2-(4-(4-(1H-pyrrolo[2,3-b]pyridin-3-yl)-1H-pyrazol-1-yl)-1,1-dioxotetrahydro-2H-thiopyran-4-yl)-N-(2,2,2-trifluoroethyl)acetamide] | 20 to 50 | > 50 | > 50
8 | CS(=O)(=O)N1CC(C#N)(Nc2ccnc(-c3ccnc4[nH]ccc34)n2)C1 [Example 50, 3-((2-(1H-pyrrolo[2,3-b]pyridin-4-yl)pyrimidin-4-yl)amino)-1-(methylsulfonyl) azetidine-3-carbonitrile] | > 50 | > 50 | > 50
9 | N#CC1(Nc2ccnc(-c3ccnc4[nH]ccc34)n2)CCC1 [Example 56, 1-((2-(1H-pyrrolo[2,3-b]pyridin-4-yl)pyrimidin-4-yl)amino)cyclobutanecarbonitrile] | > 50 | > 50 | > 50
10 | N#CCC1(n2cc(-c3c[nH]c4ncccc34)cn2)CCS(=O)(=O)CC1 [Example 2, 2-(4-(4-(1H-pyrrolo[2,3-b]pyridin-3-yl)-1H-pyrazol-1-yl)-1,1-dioxotetrahydro-2H-thiopyran-4-yl)acetonitrile] | < 20 | 20 to 50 | > 50
11 | CCS(=O)(=O)N1CC(CC(N)=O)(n2cc(-c3c[nH]c4ncccc34)cn2)C1 [Example 6, 2-(3-(4-(1H-pyrrolo[2,3-b]pyridin-3-yl)-1H-pyrazol-1-yl)-1-(ethylsulfonyl)azetidin-3-yl)acetamide] | > 50 | > 50 | > 50
12 | N#CC1(Nc2ccnc(-c3c[nH]c4ncccc34)n2)CCCC1 [Example 57, 1-((2-(1H-pyrrolo[2,3-b]pyridin-3-yl)pyrimidin-4-yl)amino)cyclopentanecarbonitrile] | > 50 | > 50 | 20 to 50
13 | N#CCC1(n2cc(-c3ccnc4[nH]ccc34)cn2)CCS(=O)(=O)CC1 [Example 4, 2-(4-(4-(1H-pyrrolo[2,3-b]pyridin-4-yl)-1H-pyrazol-1-yl)-1,1-dioxotetrahydro-2H-thiopyran-4-yl)acetonitrile] | < 20 | < 20 | > 50
14 | CC(C)(CC(=O)NCC(F)(F)F)n1cc(-c2c[nH]c3ncccc23)cn1 [Example 28, 3-(4-(1H-pyrrolo[2,3-b]pyridin-3-yl)-1H-pyrazol-1-yl)-3-methyl-N-(2,2,2-trifluoroethyl)butanamide] | > 50 | 20 to 50 | > 50
15 | N#CC1(Nc2ccnc(-c3ccnc4[nH]ccc34)n2)CCS(=O)(=O)CC1 [Example 53, 4-((2-(1H-pyrrolo[2,3-b]pyridin-4-yl)pyrimidin-4-yl)amino)tetrahydro-2H-thiopyran-4-carbo nitrile 1,1-dioxide] | > 50 | > 50 | 20 to 50

Results, then the compound that gave them:

Row | IC50 [1] [nM] | IC50 [2] [nM] | IC50 [3] [nM] | Compound
16 | > 50 | > 50 | > 50 | CCS(=O)(=O)N1CC(CC(=O)NCC(F)(F)F)(n2cc(-c3ccnc4[nH]ccc34)cn2)C1 [Example 9, 2-(3-(4-(1H-pyrrolo[2,3-b]pyridin-4-yl)-1H-pyrazol-1-yl)-1-(ethylsulfonyl)azetidin-3-yl)-N-(2,2,2-trifluoroethyl)acetamide]
17 | 20 to 50 | > 50 | > 50 | CS(=O)(=O)N1CCC(CC(=O)NCC(F)(F)F)(n2cc(-c3ccnc4[nH]ccc34)cn2)CC1 [Example 24, 2-(4-(4-(7H-pyrrolo[2,3-b]pyridin-4-yl)-1H-pyrazol-1-yl)-1-(methylsulfonyl)piperidin-4-yl)-N-(2,2,2-trifluoroethyl)acetamide]
18 | 20 to 50 | 20 to 50 | > 50 | CS(=O)(=O)N1CC(CC(=O)NCC(F)(F)F)(n2cc(-c3ncnc4[nH]ccc34)cn2)C1 [Example 12, 2-(3-(4-(7H-pyrrolo[2,3-d]pyrimidin-4-yl)-1H-pyrazol-1-yl)-1-(methylsulfonyl)azetidin-3-yl)-N-(2,2,2-trifluoroethyl)acetamide]
19 | 20 to 50 | > 50 | > 50 | CS(=O)(=O)N1CCC(CC(=O)NCC(F)(F)F)(n2cc(-c3ncnc4[nH]ccc34)cn2)CC1 [Example 23, 2-(4-(4-(7H-pyrrolo[2,3-b]pyrimidin-4-yl)-1H-pyrazol-1-yl)-1-(methylsulfonyl)piperidin-4-yl)-N-(2,2,2-trifluoroethyl)acetamide]
20 | 20 to 50 | > 50 | > 50 | O=C(CC1(n2cc(-c3ncnc4[nH]ccc34)cn2)CCS(=O)(=O)CC1)NCC(F)(F)F [Example 20, 2-(4-(4-(7H-pyrrolo[2,3-d]pyrimidin-4-yl)-1H-pyrazol-1-yl)-1,1-dioxotetrahydro-2H-thiopyran-4-yl)-N-(2,2,2-trifluoroethyl)acetamide]
21 | 20 to 50 | > 50 | > 50 | O=C(CC1(n2cc(-c3ccnc4[nH]ccc34)cn2)CCS(=O)(=O)CC1)NCC(F)(F)F [Example 21, 2-(4-(4-(7H-pyrrolo[2,3-b]pyridin-4-yl)-1H-pyrazol-1-yl)-1,1-dioxotetrahydro-2H-thiopyran-4-yl)-N-(2,2,2-trifluoroethyl)acetamide]
22 | > 50 | 20 to 50 | < 20 | CC(C)(CC(=O)NCC(F)(F)F)n1cc(-c2ncnc3[nH]ccc23)cn1 [Example 29]
23 | > 50 | > 50 | > 50 | CCS(=O)(=O)N1CC(CC(=O)NCC(F)(F)F)(n2cc(-c3c[nH]c4ncccc34)cn2)C1 [Example 7, 2-(3-(4-(1H-pyrrolo[2,3-b]pyridin-3-yl)-1H-pyrazol-1-yl)-1-(ethylsulfonyl)azetidin-3-yl)-N-(2,2,2-trifluoroethyl)acetamide]
